From patent US11872216B2, “Pharmaceutical formulation comprising cineole and amoxicillin” (priority 2016, dated 2024)
“And” between values parts separate entries of the source, which are not always exact repeats. Equal entries are not always repeated.

System: amoxicillin-sensitive bacterial strain of Escherichia coli (ATCC 8739)
Test: Enzymatic test in agar medium (inhibition halos of disks with or without β-lactamase and cineole)
Assay type: cell-based
Procedure: This study is based on an enzymatic test first placing AMX combined with cineole in contact with ß-lactamases. The antibacterial activity of this antibiotic was then checked on an AMX-sensitive strain of Escherichia coli.
An amoxicillin-sensitive bacterial strain of Escherichia coli (ATCC 8739) was supplied by the national hygiene institute (INH-Rabat).
For each test performed, precultures of this E. coli strain of 24 h at 37° C. were prepared from this bacterial strain (frozen beforehand at −20° C.). From these precultures, bacterial inocula of 3.3×10^6 CFU/ml were prepared, adjusting the optical density to 540 nm.
Disks charged with antibiotics (diameter Ø=6 mm) were used for the enzymatic test in agar medium (AMX: amoxicillin and AMC: amoxicillin+clavulanic acid). They were supplied by the national hygiene institute (INH-Rabat). The AMX used for the enzymatic test in liquid medium was supplied by Sigma Aldrich (France).
The cineole was supplied by Sigma Aldrich (France). […]
Starting with a 24 h sensitive preculture of E. coli, eighteen Petri dishes of the agar MH medium were inoculated by surface plating. […] 10 μl of β-lactamase at 0.03 U/ml and 10 μl of cineole at 0.002 μl/ml were added to the surface of each of these three disks. • After incubation of the eight Petri dishes for 18 h at 37° C., the diameters of the inhibition halos were measured.

SMILES | infra-inhibitory concentration (highest concentration without any inhibition) (microdilution method) | Diameters of the halos (disks AMX 20 μg, AMC 30 μg, β-lactamase 0.03 U/ml, cineole 0.002 μl/ml where added, 18 h at 37° C., 6 mm is the diameter of the disk, listed as AMX)
CC12CCC(CC1)C(C)(C)O2 [cineole, 1,8-cineole] | ~0.002 μl/ml | –
CC1(C)S[C@@H]2[C@H](NC(=O)[C@H](N)c3ccc(O)cc3)C(=O)N2[C@H]1C(=O)O [amoxicillin, Amoxicillin] | – | 15 mm and 15 ± 1.0 mm
